One test concerns the target NR2B (Rattus norvegicus (Rat), UniProt Q00960). Put plainly: NR2B rat cortical neuron calcium influx assay. It is filed as cell-based. Particulars: rat cortical neurons, glutamate and glycine stimulated calcium influx, 2 hours compound incubation. From the text:
Example 1: NR2B Rat Cortical Neuron Calcium Influx Assay Protocol
Embryonic day 18 timed pregnant Sprague Dawley rats were euthanized according to Institutional Animal Care and Use Committee (IACUC) protocol. After cutting medially through the skin and exposing the uterus and embryos, fetuses were removed and placed in cold Hibernate medium. Each embryo's brain was extracted and cerebral cortices were isolated by removing the midbrain and meninges. The dissected cortices were then dissociated into the neurons using papain dissociation system (Worthington Biochemical Corporation) according the manufacturer's protocol.
Dissociated neurons were counted and plated into 384-well poly-D-lysine coated plates (Corning® BioCoat™) at a density of 20,000 cells/well in 30 μL of Neurobasal/B27 complete medium. Neurons were cultured at 37° C. for 2 days. On the assay day, medium was removed and cells were incubated with 20 μL/well of calcium dye (Calcium 6 Assay Kit, Molecular Devices) suspended in HBSS with 1.8 mM Ca^2+ (Ca-HBSS) according to the manufacturer's instruction.
Compounds of interest from 10 mM stock were serially diluted into 3× of desired concentrations in 1.8 mM Ca-HBSS, and 10 μL were added to the wells. Compound and the neurons were incubated at 37° C. for 2 hours in the dark.
On FDSS7000EX (Hamamatsu Photonics), a fluorescence measuring instrument, 10 μL of 4× ligand solution containing glutamate and glycine made in 1.8 mM Ca^2+-HBSS were added to each well. The fluorescent signals were collected before and after the addition of ligands for a total of 2 minutes. The data were converted to a ratio of the peak fluorescence to the fluorescence at the beginning of the measurement.
Each data point was measured in duplicates. Dose response curves were used to identify IC50 and maximal inhibition values. IC50 represents the concentration in μM of compound at which there is a half-maximal compound effect. Maximal inhibition of a compound is expressed as a percent of the highest inhibition of activity over a no compound control.

A further test has as its target hERG (Homo sapiens (Human), UniProt Q12809). Description: hERG Qpatch assay. The conditions noted are these: hERG expressing CHO-K1 cells, automated patch clamp, tail current. Type of test: cell-based. The method, then: This assay was performed by the method described in Skepper et al., J. Med. Chem. 2020, 63, 7773-7816:
hERG expressing cell lines were produced in-house at Novartis using CHO-K1 T-Rex inducible plasmid system (Invitrogen) as described previously (Cao et al., Assay Drug Dev. Technol. 2010, 8, 766-780). Cell lines were maintained in Ham's F12 nutrient mixture containing 10% FBS, blasticidin ([…]; InvivoGen), hygromycin B ([…]; InvivoGen), Zeocin ([…], Invitrogen), and neomycin ([…], Invitrogen) using SelecT automated cell culture system (TAP Biosystems, Cambridge, U.K.). hERG and hCav1.2 channels expression was induced with tetracycline (0.25-1 μg/mL, Invitrogen) at least 24 h prior to the experiment.
hERG currents were recorded using the Qpatch automated patch clamp systems (Sophion Bioscience Inc., North Brunswick, NJ) in the whole (single) cell configuration. hERG expressing CHO-K1 cells were harvested with Detachin (Genlantis) and stored in the modified serum-free SFM-2 media (Life Technologies) at room temperature. The extracellular solution contained (in mM) NaCl (145), KCl (4), MgCl2 (1), CaCl2 (2), and HEPES (10), pH 7.4, with NaOH. The intracellular solution contained KCl (135), MgCl2 (1.75), CaCl2 (5.4), EGTA (10), K2-ATP (4), and HEPES (10), pH 7.2, with KOH. After whole cell configuration was achieved, the cell was held at −90 mV, and a 0.1 s pulse to −50 mV was delivered to measure the leaking current, which was subtracted from the tail current online. Then the cell was depolarized to +20 mV for 4 s (prepulse), followed by a 4 s test pulse to −50 mV to reveal the hERG tail current. To monitor changes in the current amplitude, this voltage protocol was repeatedly applied every 20 s. Test compounds were first diluted in DMSO for six dose-response experiments and then dissolved in the extracellular solution using Freedom EVO liquid handling robotic system (Tecan, Männedorf, Switzerland). The final DMSO concentration in samples was 0.3% v/v. Amitriptyline (Sigma) was tested as a positive control. Data were analyzed using in-house developed MatLab-based program (MathWorks, Natick, MA).

The structures appear in SMILES notation.

Here are results for 23 compounds from US20240199576A1, “NOVEL CYCLOPENTA[C]PYRROL NEGATIVE ALLOSTERIC MODULATORS OF NR2B” (Novartis AG, priority 2021, published 2024).

hERG, sequence (Q12809 whole entry): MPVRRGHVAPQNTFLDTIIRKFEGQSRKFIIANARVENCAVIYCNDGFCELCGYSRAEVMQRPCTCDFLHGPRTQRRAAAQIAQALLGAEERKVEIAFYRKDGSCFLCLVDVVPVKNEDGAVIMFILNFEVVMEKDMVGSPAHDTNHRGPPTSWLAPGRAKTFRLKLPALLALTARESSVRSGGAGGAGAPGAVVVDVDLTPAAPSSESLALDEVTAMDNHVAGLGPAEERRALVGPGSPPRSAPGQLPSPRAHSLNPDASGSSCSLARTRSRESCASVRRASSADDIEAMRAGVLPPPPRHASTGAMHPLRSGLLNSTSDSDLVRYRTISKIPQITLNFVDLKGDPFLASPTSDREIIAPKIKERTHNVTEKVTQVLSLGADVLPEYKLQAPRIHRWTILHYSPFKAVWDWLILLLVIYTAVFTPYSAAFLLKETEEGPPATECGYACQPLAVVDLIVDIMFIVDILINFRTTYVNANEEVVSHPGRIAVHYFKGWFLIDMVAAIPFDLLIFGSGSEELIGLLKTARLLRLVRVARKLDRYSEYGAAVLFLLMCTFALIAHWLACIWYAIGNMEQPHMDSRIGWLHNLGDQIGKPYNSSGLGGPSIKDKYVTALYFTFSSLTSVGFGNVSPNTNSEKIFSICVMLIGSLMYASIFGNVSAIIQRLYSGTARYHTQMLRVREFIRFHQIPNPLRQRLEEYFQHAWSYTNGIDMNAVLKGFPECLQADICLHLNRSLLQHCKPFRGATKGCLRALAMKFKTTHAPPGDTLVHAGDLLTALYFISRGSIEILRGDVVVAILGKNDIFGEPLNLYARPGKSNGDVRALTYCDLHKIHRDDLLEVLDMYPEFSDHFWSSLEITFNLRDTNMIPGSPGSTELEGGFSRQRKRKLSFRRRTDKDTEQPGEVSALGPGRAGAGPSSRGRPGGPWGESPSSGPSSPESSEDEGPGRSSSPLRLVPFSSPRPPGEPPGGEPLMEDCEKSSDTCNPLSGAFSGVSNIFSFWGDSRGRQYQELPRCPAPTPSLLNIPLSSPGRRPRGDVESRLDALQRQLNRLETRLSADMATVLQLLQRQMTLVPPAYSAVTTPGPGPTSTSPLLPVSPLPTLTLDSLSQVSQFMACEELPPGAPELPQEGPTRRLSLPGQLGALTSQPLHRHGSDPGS
NR2B, sequence (Q00960 27-1482, other chains not shown): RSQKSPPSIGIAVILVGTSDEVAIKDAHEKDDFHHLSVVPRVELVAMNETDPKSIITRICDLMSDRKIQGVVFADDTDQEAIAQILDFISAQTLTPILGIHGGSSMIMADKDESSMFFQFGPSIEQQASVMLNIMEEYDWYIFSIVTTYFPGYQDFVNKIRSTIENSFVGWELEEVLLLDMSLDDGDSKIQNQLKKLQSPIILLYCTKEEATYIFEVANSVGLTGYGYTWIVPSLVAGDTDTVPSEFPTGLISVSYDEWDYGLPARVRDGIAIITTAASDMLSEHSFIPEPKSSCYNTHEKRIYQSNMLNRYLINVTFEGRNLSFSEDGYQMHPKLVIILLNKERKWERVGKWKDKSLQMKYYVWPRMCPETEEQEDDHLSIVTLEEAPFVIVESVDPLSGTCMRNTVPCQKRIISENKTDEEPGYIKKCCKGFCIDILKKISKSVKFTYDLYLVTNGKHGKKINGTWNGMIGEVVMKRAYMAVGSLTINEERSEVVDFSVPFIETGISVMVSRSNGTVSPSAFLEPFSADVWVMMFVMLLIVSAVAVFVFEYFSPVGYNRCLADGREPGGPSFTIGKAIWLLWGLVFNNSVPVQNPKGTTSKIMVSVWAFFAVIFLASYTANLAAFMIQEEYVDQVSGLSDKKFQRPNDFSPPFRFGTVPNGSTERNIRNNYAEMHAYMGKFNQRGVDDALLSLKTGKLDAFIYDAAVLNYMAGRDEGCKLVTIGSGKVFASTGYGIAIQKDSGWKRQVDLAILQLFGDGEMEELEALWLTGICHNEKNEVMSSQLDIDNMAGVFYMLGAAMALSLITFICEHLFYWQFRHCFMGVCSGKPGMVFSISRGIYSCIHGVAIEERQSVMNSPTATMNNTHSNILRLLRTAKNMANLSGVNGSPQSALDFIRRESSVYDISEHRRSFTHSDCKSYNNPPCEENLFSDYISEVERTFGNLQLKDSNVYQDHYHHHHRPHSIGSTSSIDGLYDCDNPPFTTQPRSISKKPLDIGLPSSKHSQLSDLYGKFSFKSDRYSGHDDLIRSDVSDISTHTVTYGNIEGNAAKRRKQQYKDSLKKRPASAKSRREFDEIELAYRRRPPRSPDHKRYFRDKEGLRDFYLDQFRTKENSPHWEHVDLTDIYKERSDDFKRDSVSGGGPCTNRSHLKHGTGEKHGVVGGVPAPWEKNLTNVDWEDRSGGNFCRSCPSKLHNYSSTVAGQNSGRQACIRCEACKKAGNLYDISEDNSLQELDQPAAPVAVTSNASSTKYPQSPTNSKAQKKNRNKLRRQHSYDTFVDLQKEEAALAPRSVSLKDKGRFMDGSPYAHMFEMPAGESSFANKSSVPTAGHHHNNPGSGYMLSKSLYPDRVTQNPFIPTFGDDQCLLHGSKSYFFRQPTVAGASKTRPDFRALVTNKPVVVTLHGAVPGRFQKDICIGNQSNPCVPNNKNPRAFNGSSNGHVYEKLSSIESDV

By IC50 is commonly meant the concentration at which inhibition is half-maximal. As for `Oc1c(F)cc(C(O)CN2C[C@H]3C[C@H](Oc4ccccc4)[C@H](O)[C@@]3(O)C2)cc1F` (some centres unmarked) [Example 5B], the IC50 at NR2B is 28 nM. Take `Oc1ccc(C(O)CN2C[C@H]3C[C@H](Oc4ccccc4F)C[C@@]3(O)C2)nc1` (single isomer, unassigned) [Example 1B]: the half-inhibitory concentration (IC50) at hERG is 14000 nM; on NR2B it was 0.74 nM. As for `Oc1ccc(CCN2C[C@H]3C[C@H](Oc4cccnc4F)C[C@@]3(O)C2)nc1` [Example 20], the IC50 on NR2B turned out to be 820 nM.

Consider `Oc1ccc(C(O)CN2C[C@H]3C[C@H](Oc4ccccc4)C[C@@]3(O)C2)nc1` (single isomer, unassigned) [Example 7D], for which the IC50 against hERG was found to be 19000 nM; at NR2B, 3.2 nM. Consider `Oc1c(F)cc(C(O)CN2C[C@H]3C[C@H](Oc4ccccc4)C[C@H]3C2)cc1F` (mixture of isomers) [Mixture of two isomers at benzylic position, reference compound], for which the 50% inhibitory concentration (IC50) against hERG stood at 2800 nM. Turning to `Oc1ccc(C(O)CN2C[C@H]3C[C@H](Oc4ccccc4)C[C@@]3(O)C2)nc1` (single isomer, unassigned) [Example 7C], the 50% inhibitory concentration (IC50) came to 28000 nM on hERG and 2.4 nM at NR2B. On to `Oc1c(F)cc(C(O)CN2C[C@@H]3C[C@@H](Oc4ccccc4)[C@@H](O)[C@]3(O)C2)cc1F` (single isomer, unassigned) [Example 5D], for which, at NR2B, the half-inhibitory concentration (IC50) came to 3700 nM. With `Oc1ccc(C(O)CN2C[C@H]3C[C@H](Oc4ccccc4F)C[C@@]3(O)C2)nc1` (single isomer, unassigned) [Example 1C], the concentration for half-maximal inhibition (IC50) turned out to be 22000 nM on hERG and 1.1 nM at NR2B. With `Oc1ccc(C(O)CN2C[C@H]3C[C@H](Oc4ccccc4F)[C@H](O)[C@@]3(O)C2)nc1` (single isomer, unassigned) [Example 2B], the 50% inhibitory concentration (IC50) at NR2B amounted to 2.2 nM. `Oc1c(F)cc([C@@H](O)CN2C[C@H]3C[C@H](Oc4ccccc4)C[C@@]3(O)C2)cc1F` [Example 10C]: the 50% inhibitory concentration (IC50) came to 22000 nM against hERG and 14 nM on NR2B. As to `Oc1ccc(C(O)CN2C[C@@H]3C[C@@H](Oc4ccccc4F)[C@@H](O)[C@]3(O)C2)nc1` (single isomer, unassigned) [Example 2D], the IC50 on NR2B worked out at 950 nM. Still for that read-out and setting: to `Oc1ccc(C(O)CN2C[C@H]3C[C@H](Oc4ccccc4)[C@H](O)[C@@]3(O)C2)nc1Cl` (single isomer, unassigned) [Example 4D] belongs 35 nM. `Oc1ccc(C(O)CN2C[C@H]3C[C@H](Oc4ccccc4)C[C@H]3C2)nc1` (single isomer, unassigned) [Table 3 from WO 2016/049165 (isomer 1), reference compound] gave a half-maximal inhibitory concentration (IC50) on hERG of 2000 nM. For the compound `Oc1c(F)cc(C(O)CN2C[C@@H]3C[C@@H](Oc4ccccc4)[C@@H](O)[C@]3(O)C2)cc1F` (single isomer, unassigned) [Example 5C], at NR2B, the half-maximal inhibitory concentration (IC50) worked out at 900 nM. On the same count and under the same terms, for `Oc1ccc(C(O)CN2C[C@@H]3C[C@@H](Oc4ccccc4)[C@@H](O)[C@]3(O)C2)nc1Cl` (some centres unmarked) [Example 4A] the value was more than 10000 nM. Regarding `Oc1ccc(C(O)CN2C[C@H]3C[C@H](Oc4ccccc4)C[C@H]3C2)nc1` (single isomer, unassigned) [Table 3 of WO 2016/049165 (isomer 2), reference compound], it took 2700 nM to reach half-maximal inhibition against hERG (IC50). Consider `Oc1c(F)cc([C@H](O)CN2C[C@H]3C[C@H](Oc4ccccc4)C[C@@]3(O)C2)cc1F` [Example 10D, (3aS,5S,6aR)-2-((S)-2-(3,5-difluoro-4-hydroxyphenyl)-2-hydroxyethyl)-5-phenoxyhexahydrocyclopenta[c]pyrrol-3a(1H)-ol], for which the IC50 on hERG came out at 25000 nM; at NR2B it was 6 nM. For `Oc1ccc(C(O)CN2C[C@H]3C[C@H](Oc4ccccc4)[C@H](O)[C@@]3(O)C2)nc1Cl` (single isomer, unassigned) [Example 4C], the 50% inhibitory concentration (IC50) at NR2B was determined as 31 nM. As to `Oc1ccc(CCN2C[C@H]3C[C@H](Oc4ccc(F)cc4F)C[C@@]3(O)C2)nc1` [Example 19], the IC50 at NR2B was 18 nM. Still for that read-out and setting: for `Oc1ccc(C(O)CN2C[C@H]3C[C@H](Oc4ccccc4)[C@H](O)[C@@]3(O)C2)nc1F` (some centres unmarked) [Example 3D] the value was 24 nM; for `Oc1ccc(C(O)CN2C[C@H]3C[C@H](Oc4ccccc4F)[C@H](O)[C@@]3(O)C2)nc1` (single isomer, unassigned) [Example 2A], 11 nM.

Turning to `Oc1ccc(C(O)CN2C[C@@H]3C[C@@H](Oc4ccccc4F)[C@@H](O)[C@]3(O)C2)nc1` (single isomer, unassigned) [Example 2C], the half-maximal inhibitory concentration (IC50) on NR2B turned out to be 770 nM. The same measure, in the same setting: to `Oc1ccc(C(O)CN2C[C@@H]3C[C@@H](Oc4ccccc4)[C@@H](O)[C@]3(O)C2)nc1F` (some centres unmarked) [Example 3A] belongs more than 10000 nM.
